Reference: patent US12358863B2, “Nitrogen-containing derivative of substituted phenol hydroxy acid ester, and preparation and use thereof” (priority 2019, dated 2025)

Experiments:
Kunming mice [1] = assay: Determination of therapeutic index (ED50 and LD50, up-and-down method); type: in vivo, mouse; settings: half male and half female
Method: Determination of therapeutic index (TI) of prodrug molecules: by referring the method in literature (Dixon, W. Staircase bioassay: the up-and-down method. Neurosci. Biobehav. Rev. 1991, 15, 47-50), the half-effective dose (ED50) and half-lethal dose (LD50) of the molecule to be tested were determined in Kunming mice (weighing 25-30 g, half male and half female). The therapeutic index for each molecule was calculated according to the equation: TI=LD50/ED50.

Kunming mice [2] = type: in vivo, mouse; settings: Table 3; dose 2×ED50, tail vein injection, male Kunming mice
Method: For each drug, 10 male Kunming mice weighing 20-35 g were included, and the dose of each drug was 2×ED50 in mice. After the compound of the present invention and fospropofol were respectively dissolved in saline, the resultant solutions were injected via the mouse tail vein. For propofol, a glucose dilution (5 mg/mL) of a commercially available emulsion of diprivan was selected and injected via the mouse tail vein; while, for another substituted phenol molecule (CAS:1637741-58-2), its 30% fat emulsion was prepared as a medicated emulsion. The concentration of the injectable solution of the compound according to the present invention was 10-15 mg/mL, and the concentration of the injectable solution of fospropofol was 55 mg/mL, while the concentration of the injectable solution of another substituted phenol molecule (CAS:1637741-58-2) was 1 mg/mL. After injection of tested drug, the occurrence time T1 of righting reflex after its disappearance, the duration T2 for the disappearance of righting reflex (i.e. anesthesia time) and the time T3 required for the animal to recover completely after waking up were recorded. Complete recovery refers to the recovery of autonomous activities of animals to the level before administration. In the experiment, animals were not given respiratory support such as oxygen inhalation or intubation.

[3] = Decomposition of prodrugs in mouse plasma in vitro (HPLC of released propofol or other substituted phenol); type: in vitro ADME; settings: 37° C.
Method: The prodrug to be tested was prepared into a saline solution of 10 mg/mL. 10 μL of drug-containing solution was added to 990 μL of mouse plasma, vortexed for 30 s, and then incubated at 37° C. At 30 s, 1 min, 5 min, 10 min, 30 min, 60 min and 120 min, 50 μL of drug-containing plasma was collected, to which was immediately added 150 μL of acetonitrile to terminate the enzymatic reaction, and then centrifuged at 20000 rpm and 4° C. for 10 min. 50 μL of supernatant was taken out and injected into HPLC, to determine the concentration of propofol by internal standard method. The decomposition rate of the prodrug was calculated from the concentrations of propofol or other substituted phenols. Chromatographic conditions: Agilent Zorbax XdB C18 column (150 mm)×4.6 mm, 5 μm); column temperature 30° C.; the mobile phase, water:acetonitrile (40:60, v/v); fluorescence wavelength: excitation wavelength (Ex) at 276 nm, emission wavelength (EM) at 310 nm; flow rate: 1.2 mL/min; retention time: internal standard (thymol) 3.9 min, propofol 7.4 min. Linear range of propofol or other substituted phenols: 50-35000 ng/mL. Instruments: Waters 2695 high performance liquid chromatograph, Waters 2475 fluorescence detector.

## CC(C)c1cccc(C(C)C)c1OC(=O)COC(=O)CN1CCCC1.Cl [Compound 42]
Kunming mice [1]
  TI (therapeutic index): 3.7
Kunming mice [2]
  T1: the onset time after injection: Immediate
  T2: the duration of disappearance of righting reflex: 6 to 12 min
  T3: the time required for righting reflex to recover to autonomous activity: 1 to 2 min
[3]; 30 s
  Decomposition rates of prodrugs: 91%
[3]; 1 min
  Decomposition rates of prodrugs: 100%
[3]; 5 min
  Decomposition rates of prodrugs: 100%
[3]; 10 min
  Decomposition rates of prodrugs: 100%
[3]; 30 min
  Decomposition rates of prodrugs: 100%
[3]; 60 min
  Decomposition rates of prodrugs: 100%
[3]; 120 min
  Decomposition rates of prodrugs: 100%

## CC(C)C[C@@H](N)C(=O)OCC(=O)Oc1c(C(C)C)cccc1C(C)C.Cl [Compound 48]
Kunming mice [1]
  TI (therapeutic index): 4.1
Kunming mice [2]
  T1: the onset time after injection: Immediate
  T2: the duration of disappearance of righting reflex: 6 to 14 min
  T3: the time required for righting reflex to recover to autonomous activity: 1 to 2 min
[3]; 30 s
  Decomposition rates of prodrugs: 92%
[3]; 1 min
  Decomposition rates of prodrugs: 100%
[3]; 5 min
  Decomposition rates of prodrugs: 100%
[3]; 10 min
  Decomposition rates of prodrugs: 100%
[3]; 30 min
  Decomposition rates of prodrugs: 100%
[3]; 60 min
  Decomposition rates of prodrugs: 100%
[3]; 120 min
  Decomposition rates of prodrugs: 100%

## CC(C)c1cccc(C(C)C)c1OCOP(=O)(O)O [Fospropofol, fospropofol, reference compound]
Kunming mice [1]
  TI (therapeutic index): 2.9
Kunming mice [2]
  T1: the onset time after injection: 1.5 to 2 min
  T2: the duration of disappearance of righting reflex: 28 to 45 min
  T3: the time required for righting reflex to recover to autonomous activity: 5 to 8 min
[3]; 10 min
  Decomposition rates of prodrugs: not decomposed significantly
[3]; 30 min
  Decomposition rates of prodrugs: 3%
[3]; 60 min
  Decomposition rates of prodrugs: 16%
[3]; 120 min
  Decomposition rates of prodrugs: 38%
[3]; 120 min, listed as fopropofol
  Decomposition rates of prodrugs: 38%
